The nature of assay [1]: Reduction in arp gene expression in heart base tissue Borrelia burgdorferi infected mouse at 12.5 mg/kg. On the set-up: dose 12.5 mg/kg. Conditions: Borreliella burgdorferi. The class given is functional, organism-based.
The test system of assay [2] is Borrelia burgdorferi. Nature of the assay: Antimicrobial activity against Borrelia burgdorferi B31. Format: functional. As to conditions: Borreliella burgdorferi.
Assay [3] in a line: Reduction in flaB gene expression in heart base tissue Borrelia burgdorferi infected mouse at 12.5 mg/kg. The class given is functional, organism-based. On the set-up: dose 12.5 mg/kg. Conditions: Borreliella burgdorferi.
The nature of assay [4]: Reduction in beta-actin gene expression in heart base tissue Borrelia burgdorferi infected mouse at 50 mg/kg. Format: functional, organism-based. Details: dose 50 mg/kg. Conditions: Borreliella burgdorferi.
A short description of assay [5]: Reduction in beta-Actin gene expression in heart base tissue Borrelia burgdorferi infected mouse at 12.5 mg/kg. The class given is functional, organism-based. Details: dose 12.5 mg/kg. Conditions: Borreliella burgdorferi.
The nature of assay [6]: Reduction in ospA gene expression in heart base tissue of SCID mouse transplanted with tibiotarsal and heart base tissue from Borrelia burgdorferi infected 50 mg/kg treated mouse. Format: functional, organism-based. Details: dose 50 mg/kg. Conditions: Borreliella burgdorferi, at 50 mg/kg.
Assay [7] can be described thus: Reduction in ospA gene expression assessed as gene copies in per mg of SCID mouse ventricular/quadriceps tissue receiving Borrelia burgdorferi infected nymphal ticks from 50 mg/kg treated mouse. Conditions: Borreliella burgdorferi; Cardiac ventricle; at 50 mg/kg. Details: dose 50 mg/kg. Format: functional, organism-based.
Assay [8] in a line: Reduction in flaB gene expression in heart base tissue Borrelia burgdorferi infected mouse at 50 mg/kg. The class given is functional, organism-based. Details: dose 50 mg/kg. As to conditions: Borreliella burgdorferi.
The nature of assay [9]: Reduction in ospA gene expression in heart base tissue Borrelia burgdorferi infected mouse at 50 mg/kg. Format: functional, organism-based. On the set-up: dose 50 mg/kg. As to conditions: Borreliella burgdorferi.
A short description of assay [10]: Reduction in dbpA gene expression in heart base tissue Borrelia burgdorferi infected mouse at 50 mg/kg. Format: functional, organism-based. Details: dose 50 mg/kg. As to conditions: Borreliella burgdorferi.
For assay [11], the system named is Borrelia burgdorferi. Nature of the assay: Antimicrobial activity against Borrelia burgdorferi N40. Format: functional. Conditions: Borreliella burgdorferi.
Assay [12] is described as follows: Reduction in oppA-2 gene expression in heart base tissue Borrelia burgdorferi infected mouse at 50 mg/kg. The class given is functional, organism-based. On the set-up: dose 50 mg/kg. As to conditions: Borreliella burgdorferi.
A short description of assay [13]: Reduction in arp gene expression in heart base tissue Borrelia burgdorferi infected mouse at 50 mg/kg. As to conditions: Borreliella burgdorferi. On the set-up: dose 50 mg/kg. Format: functional, organism-based.
Assay [14] is described as follows: Reduction in ospA gene expression in heart base tissue of SCID mouse transplanted with tibiotarsal and heart base tissue from Borrelia burgdorferi infected 12.5 mg/kg treated mouse. Details: dose 12.5 mg/kg. The class given is functional, organism-based. As to conditions: Borreliella burgdorferi, at 12.5 mg/kg.

The results in this text go back to ChEMBL document CHEMBL1212796, “Ineffectiveness of tigecycline against persistent Borrelia burgdorferi” (2010).

Molecules are shown by their SMILES. Values after ≈ are worked out from the molar mass of the structure shown. Active and inactive are the calls of the source.

A word on the MIC: it is the smallest concentration in the dilution series that meets the test's criterion for growth inhibition. The low end stands for a more susceptible organism, the high end for a less susceptible organism.

With `CN(C)c1cc(NC(=O)CNC(C)(C)C)c(O)c2c1C[C@H]1C[C@H]3[C@H](N(C)C)C(O)=C(C(N)=O)C(=O)[C@@]3(O)C(O)=C1C2=O` [TIGECYCLINE], the inhibition result in assay [1], in [3], in assay [6], in [7], in assay [8] and in assay [9] was “Active” throughout. The inhibition result in [10] and in assay [13] was “Active” each time. The MIC with Borrelia burgdorferi [2] and against Borrelia burgdorferi [11] was 0.006 mg/L (≈ 0.0102 µM) each time. Further, the inhibition result in assay [4], in assay [5] and in assay [12] was “inactive” in each case.
As to `CO/N=C(\C(=O)N[C@@H]1C(=O)N2C(C(=O)O)=C(CSc3nc(=O)c(O)nn3C)CS[C@H]12)c1csc(N)n1` [CEFTRIAXONE], the minimal inhibitory concentration (MIC) stood at 0.012 mg/L (≈ 0.0216 µM) against Borrelia burgdorferi [2] and 0.048 mg/L (≈ 0.0866 µM) against Borrelia burgdorferi [11]. In [14], the inhibition result was “Active”.
In the case of `CC1(C)S[C@@H]2[C@H](NC(=O)Cc3ccccc3)C(=O)N2[C@H]1C(=O)O` [PENICILLIN G], the MIC against Borrelia burgdorferi [2] and in the assay with Borrelia burgdorferi [11] was 0.024 mg/L (≈ 0.0718 µM) in each case.
On to `C[C@H]1c2cccc(O)c2C(=O)C2=C(O)[C@]3(O)C(=O)C(C(N)=O)=C(O)[C@@H](N(C)C)[C@@H]3[C@@H](O)[C@@H]21.O` [DOXYCYCLINE], for which the MIC is 0.39 mg/L against Borrelia burgdorferi [2] and 0.78 mg/L in the assay on Borrelia burgdorferi [11].
